Results published in patent US20100113613A1, “CYCLOHEXANE POLYALCOHOL FORMULATION FOR TREATMENT OF DISORDERS OF PROTEIN AGGREGATION” (WARATAH PHARMACEUTICALS, priority 2006, published 2010).

Experiments:
Aβ40 = biological target: T1, Aβ40 (Homo sapiens, UniProt P05067); experiment: TgCRND8 mice 2 month ad libitum treatment from 5 months: brain and plasma Aβ40 ELISA; type: in vivo; settings: 2 month treatment ad libitum 10 mg/ml from 5 months of age
T1 construct: associated with reduced levels of insoluble Aβ40 and Aβ42 in the brain; from tissue; host or cells: brain homogenate (and plasma) of TgCRND8 transgenic mice
T1 sequence (P05067 672-711): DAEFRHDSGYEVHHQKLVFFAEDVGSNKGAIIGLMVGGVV

[1] = Orally administered tritiated-inositol uptake in plasma and brain (FIG. 16); type: in vivo
Procedure: FIG. 16. Bioavailability of scyllo- (solid line) and myo-inositol (dashed line) in plasma and brain, determined using orally administered tritiated-inositol uptake studies. […] Brain levels also rose rapidly and were maximal at 8 h and 32 h, respectively.

TgCRND8 mice [2] = system: TgCRND8 mice
[3] = Brain and CSF levels of inositols after one month ad libitum dosing (GC/MS), Example 2; type: in vivo, TgCRND8 mice; settings: mouse, in vivo
Procedure: Study drugs were administered either at 30 mg/kg by oral gavage, or ad libitum by dissolution in drinking water. For administration in drinking water, study drugs were dissolved at 10 mg/ml. The average amount of water taken from the bottle was 3 ml daily per animal. The average mouse weight was 33 g. […] Quantification of scyllo-cyclohexanehexyl and myo-inositol. Scyllo-cyclohexanehexyl and myo-cyclohexanehexyl levels in the brain and CSF were analyzed using gas chromatography/mass spectrometry. D-chiro-inositol was used as an internal control, as it is not present in these biological samples. Derivatization: To increase the volatility and thermal stability of these compounds and to allow for proper peak separation, these samples need to first be derivatized. The derivatization was adapted from a method presented previously (Shetty, H U, et al, 1995, Anal. Biochem. 224:279-85), where the hydroxyl groups of the cyclohexanehexyl were replaced with acetyl groups. […] Similarly, a 5-15 μl sample of CSF was mixed with 1 ml of methanol and allowed to stand at room temperature for 5 minutes. The resulting suspension was centrifuged (5 min, 5000×g) and the supernatant transferred to a glass tube (Teflon-lined cap). […] These samples were then evaporated to complete dryness (Speedvac; 60° C.). […] This mixture was flushed with dry nitrogen, securely capped and the tubes heated (80° C.; 30 min). Following derivatization, samples were cooled (RT) and the unreacted acetylating reagent evaporated using a steady stream of nitrogen gas. The derivatized products were re-dissolved (4 ml; hexane-ethyl acetate (80:20, v/v)) and washed with 1 ml of 5% sodium hydrogencarbonate solution. […] The residue was reconstituted in 100 μl; ethyl acetate. 1 μL of this was injected into the GC/MS system. A similar procedure was followed using stock concentrations of scyllo- and myo-cyclohexanehexols, which were then used to generate concentration curves (in this case the internal standard was derivatized separately and then added). GC/MS was performed using a Perkin Elmer TurboMass Autosystem XL, with a quadrupole mass spectrometer and electron ionization. Gas chromatography was performed using a 30 m×0.25 mm×0.25 μm ZB 5 (5% diphenyl/95% dimethylpolysiloxane) column, using the carrier gas Helium (1 ml/min). Samples were injected with the split set to 50 at 1 min and 0 at 5 min, the injector temperature was set at 300° C. and an initial oven temperature of 80° C. After a hold of 1 min, the temperature was ramped at 45° C./min to 187° C. and held there for 15 min. […] Sample peaks were analyzed using selected-ion monitoring, using m/z 168 for determining cyclohexanehexyl levels in the brain and CSF and m/z 373 for determining cyclohexanehexyl levels in plasma, as monitoring the larger ion reduced noise. […]

TgCRND8 mice [4] = experiment: Morris Water Maze, TgCRND8 mice dosed 3 to 4 months, 3.3-30 mg/kg/day (Example 3); type: in vivo
Procedure: 8 mice were treated with scyllo-cyclohexanehexyl by oral gavage from 3 to 4 months. […] Animals were assessed at 4 months of age. Behavioural tests: Morris Water Maze testing was performed as previously described (Janus C, et al., 2000, Nature 408:979-982). After non-spatial pre-training, mice underwent place discrimination training for 5 days with 4-trials per day. Data were subjected to a repeated measures analysis of variance (ANOVA) with treatment (untreated, scyllo-cyclohexanehexyl) as the between subject factor. Cerebral plaque burden. Brains were removed and one hemisphere was fixed in 4% paraformaldehyde and embedded in paraffin wax in the mid sagittal plane. To generate sets of systematic uniform random sections, 5 μm serial sections were collected across the entire hemisphere. Sets of sections at 50 μm intervals were used for analyses (10-14 sections/set). Plaques were identified after antigen retrieval with formic acid, and incubation with primary anti-Aβ antibody (Dako M-0872), followed by secondary antibody (Dako StreptABCcomplex/horseradish kit). […] Aβ plaque burden was assessed with Leco IA-3001 image analysis software interfaced with Leica microscope and Hitachi KP-M1U CCD video camera. […] Vascular Aβ burden was defined as Aβ plaques originating from or surrounding blood vessels and was analysed similarly. […] The total swim path length to find the hidden platform is evaluated. […]

plaque burden = experiment: TgCRND8 effective dose range (0.3-3.3 mg/kg/day, 3 to 4 months): plaque burden; type: in vivo; settings: TgCRND8 mice
Procedure: The highest possible dose level of scyllo-cyclohexanehexyl compound was administered in a CRND8 mouse model. […]8 mice were dosed for 28 days from 3 to 4 months of age, i.e. a time when the disease phenotype would be newly established. This study design was selected to enhance the efficiency of the study (dose earlier) and maximise the information obtained (dose at a time when changes are of sufficient magnitude to detect a treatment effect). […] Cognitive function and plaque burden were assessed. • Improvement of cognitive function: Animals were assessed using the Morris Water Maze at 4 months (FIG. 11). […] This path length was similar to that observed in previous experiments in mice dosed with the compound in drinking water ad libitum. […] Thus a clear dose response was observed.

[5] = system: naturally-expressed oligomers of Aβ; experiment: In vitro effect on naturally-expressed Aβ oligomers; settings: naturally-expressed oligomers at 1-2 nM; 5 μM = 0.9 μg/mL
Chain of naturally-expressed oligomers of Aβ (P05067 672-711 limits assumed): as the sequence (P05067 672-711) above

Row | Molecule | Plasma Aβ levels Aβ40 (Aβ40) | time of maximal brain levels [1] | time of peak plasma levels post administration [1] | twice-daily oral gavage vs one daily dose at equivalent doses, reversing cognitive deficits (TgCRND8 mice [2]; TgCRND8 mice, dose finding studies) | adverse effects in the mice (TgCRND8 mice [2]; mouse, in vivo) | increase of scyllo-cyclohexanehexyl level in CSF vs untreated [3] | increase of scyllo-cyclohexanehexyl level in brain vs untreated [3] | maximally efficacious dose level (TgCRND8 mice [4]; Morris Water Maze, TgCRND8 mice aged 4 months, oral twice daily) | swim path length (Morris Water Maze) after 5 days of assessment vs placebo (TgCRND8 mice [4]; TgCRND8 mice treated 3 to 4 months, all dose levels, p=0.003, 0.008, 0.002 for 3.3, 10 and 30 mg/kg/day) | plaque parameters (plaque count and brain plaque area) (plaque burden; 0.3 mg/kg/day, 28 days from 3 to 4 months) | plaque parameters (plaque count and brain plaque area) (plaque burden; 1 mg/kg/day, plaque count p=0.02, plaque area p=0.011) | plaque parameters (plaque count and brain plaque area) (plaque burden; 3.3 mg/kg/day, plaque count p<0.0001, plaque area p<0.001) | concentration showing greater consistency of effect [5]
1 | OC1C(O)C(O)C(O)C(O)C1O (stereo not shown) [AZD-103, scyllo-inositol] | 4507 ± 207 pg/mL | 32 h | 12 h | more effective than one daily dose | no evidence of adverse effects |  |  |  |  |  |  |  | 
2 | scyllo-inositol [AZD-103] |  |  |  |  |  | 10 fold | 7 fold | 3.3 mg/kg/day | significantly shorter | indistinguishable from untreated controls | significantly reduced | greatest reduction in plaque burden | 5 µM
